# Publication PMC8286840, “Identifying SARS-CoV-2 antiviral compounds by screening for small molecule inhibitors of Nsp3 papain-like protease” (Biochemical Journal, 2021)
# Where a name gives a salt, the structure may show the parent alone. Read-outs that look alike come from different tables or passages of the source. Where a SMILES comes first, the peptide text is derived from it. [ ]: non-standard residue; d: D form. The star is where a group is joined. Dolaproine = CO[C@@H]([C@@H]1CCCN1)[C@@H](C)C(=O)O; Hexanoyl(6-maleimido) = O=C1C=CC(=O)N1CCCCCC(=O)*; Dil = CC[C@H](C)[C@H](NC)[C@@H](CC(=O)O)OC; NMeV = CN[C@H](C(=O)O)C(C)C
# What was measured:
# [1] = target: T1, SARS-CoV-2 PLpro (nsp3 1564–1878) (Severe acute respiratory syndrome coronavirus 2, UniProt P0DTD1); experiment: biochemical; set-up: FRET-quenched peptide (Pro3) cleavage by PLpro, 10 min pre-incubation, slope over 20 min, normalised to no-compound control; details: low concentration screen, read-out: % of control remaining
# [2] = target: T1, SARS-CoV-2 PLpro (nsp3 1564–1878); experiment: biochemical; set-up: FRET-quenched peptide (Pro3) cleavage by PLpro, 10 min pre-incubation, slope over 20 min, normalised to no-compound control; details: high concentration screen, read-out: % of control remaining
structure (smiles),measurement,setting,value
O=C(c1ccc(OCCN2CCCCC2)cc1)c1c(-c2ccc(O)cc2)sc2cc(O)ccc12 [Raloxifene hydrochloride],remaining activity at 1.25 µM,[1]; Well no.=1204,97.4%
same,remaining activity at 3.75 µM,[2]; Well no.=1204,99.2%
CCc1cc(-c2noc(-c3cc(OC)nc(C4CCCC4)c3)n2)cc(C)c1OC[C@@H](O)CO [Cenerimod],remaining activity at 1.25 µM,[1]; Well no.=7052,105%
same,remaining activity at 3.75 µM,[2]; Well no.=7052,105%
CO[C@H]1C[C@@H]2CC[C@@H](C)[C@@](O)(O2)C(=O)C(=O)N2CCCC[C@H]2C(=O)O[C@H]([C@H](C)C[C@@H]2CC[C@@H](OCCO)[C@H](OC)C2)CC(=O)[C@H](C)/C=C(\C)[C@@H](O)[C@@H](OC)C(=O)[C@H](C)C[C@H](C)/C=C/C=C/C=C/1C [Everolimus],remaining activity at 1.25 µM,[1]; Well no.=8740,90.8%
same,remaining activity at 3.75 µM,[2]; Well no.=8740,87.3%
"COc1ccc(OC)c2c(=S)c3ccccc3[nH]c12 [Cdk4 Inhibitor II, NSC 625987]",remaining activity at 1.25 µM,[1]; Well no.=2406,102%
same,remaining activity at 3.75 µM,[2]; Well no.=2406,108%
O=S(=O)(NCCSSCCNS(=O)(=O)c1cc(Cl)ccc1Cl)c1cc(Cl)ccc1Cl [KC7F2],remaining activity at 1.25 µM,[1]; Well no.=8580,107%
same,remaining activity at 3.75 µM,[2]; Well no.=8580,102%
NS(=O)(=O)c1ccc2c(c1)C1C=CCC1C(c1ccc(Br)cc1)N2 (centres unmarked) [4BP-TQS],remaining activity at 1.25 µM,[1]; Well no.=5971,105%
same,remaining activity at 3.75 µM,[2]; Well no.=5971,105%
CC[C@H](C)[C@@H]([C@@H](CC(=O)N1CCC[C@H]1[C@H](OC)[C@@H](C)C(=O)N[C@@H](Cc1ccccc1)C(=O)O)OC)N(C)C(=O)[C@@H](NC(=O)[C@H](C(C)C)N(C)C(=O)CCCCCN1C(=O)C=CC1=O)C(C)C [McMMAF] ({Hexanoyl(6-maleimido)}-[NMeV]V[Dil][Dolaproine]F-OH),remaining activity at 1.25 µM,[1]; Well no.=7742,97.3%
same,remaining activity at 3.75 µM,[2]; Well no.=7742,101%
CCCCNc1cc(C(=O)O)cc(S(N)(=O)=O)c1Oc1ccccc1 [Bumetanide],remaining activity at 1.25 µM,[1]; Well no.=29,103%
same,remaining activity at 1.25 µM,[1]; Well no.=1909,100%
same,remaining activity at 3.75 µM,[2]; Well no.=29,96.8%
same,remaining activity at 3.75 µM,[2]; Well no.=1909,99.1%
CC(C)c1cccc(C(C)C)c1N1C(=O)c2ccc(O)cc2C1=O [5HPP-33],remaining activity at 1.25 µM,[1]; Well no.=6085,101%
same,remaining activity at 3.75 µM,[2]; Well no.=6085,99.4%
O=c1[nH]c(=O)c2nc3ccccc3nc2[nH]1 [Alloxazine],remaining activity at 1.25 µM,[1]; Well no.=354,90.3%
same,remaining activity at 3.75 µM,[2]; Well no.=354,88.5%
Cc1ccc(Cl)c(Nc2ccccc2C(=O)O)c1Cl [Meclofenamic acid sodium],remaining activity at 1.25 µM,[1]; Well no.=784,103%
same,remaining activity at 3.75 µM,[2]; Well no.=784,103%
N=C(N)NN [Aminoguanidine hydrochloride],remaining activity at 1.25 µM,[1]; Well no.=104,93%
same,remaining activity at 3.75 µM,[2]; Well no.=104,94.6%
COc1cc(CC(C)N)c(OC)cc1I (racemic),remaining activity at 1.25 µM,[1]; Well no.=686,94.3%
same,remaining activity at 3.75 µM,[2]; Well no.=686,92.3%
Cc1nc(=O)c2cc(CN(C)c3ccc(C(=O)N[C@@H](CCC(=O)O)C(=O)O)s3)ccc2[nH]1 [Raltitrexed],remaining activity at 1.25 µM,[1]; Well no.=6308,98.3%
same,remaining activity at 1.25 µM,[1]; Well no.=7452,104%
same,remaining activity at 3.75 µM,[2]; Well no.=6308,99.3%
same,remaining activity at 3.75 µM,[2]; Well no.=7452,99.7%
COc1ccc2c(c1)C(=O)N(CCc1ccc(S(=O)(=O)NC(=O)NC3CCCCC3)cc1)C(=O)C2(C)C [Gliquidone],remaining activity at 1.25 µM,[1]; Well no.=5369,97.2%
same,remaining activity at 3.75 µM,[2]; Well no.=5369,95.2%
Nc1ccn([C@H]2C[C@H](O)[C@@H](COP(=O)(O)OP(=O)(O)OP(=O)(O)O)O2)c(=O)n1 [Deoxycytidine triphosphate],remaining activity at 1.25 µM,[1]; Well no.=7355,99.9%
same,remaining activity at 1.25 µM,[1]; Well no.=7870,101%
same,remaining activity at 3.75 µM,[2]; Well no.=7355,100%
same,remaining activity at 3.75 µM,[2]; Well no.=7870,102%
CCOC(=O)c1[nH]c2cc(Cl)ccc2c1C(C(=O)NC(C)(C)C)N(C=O)Cc1ccc(Cl)cc1 (centres unmarked) [YH239-EE],remaining activity at 1.25 µM,[1]; Well no.=6392,98.6%
same,remaining activity at 3.75 µM,[2]; Well no.=6392,97.4%
COc1ccc(Cn2ccc3ccc(C(=O)NO)cc32)cc1 [PCI-34051],remaining activity at 1.25 µM,[1]; Well no.=4710,107%
same,remaining activity at 3.75 µM,[2]; Well no.=4710,103%
C[C@@H](O)[C@H](N)c1nnc([C@H](CCC(N)=O)NC(=O)N[C@@H](CO)C(=O)O)o1 [PD-1-IN-17],remaining activity at 1.25 µM,[1]; Well no.=8741,102%
same,remaining activity at 3.75 µM,[2]; Well no.=8741,106%
"CN(C(=O)Cc1ccc(Cl)c(Cl)c1)C(CN1CCCC1)c1cccc(OCC(=O)O)c1 (centres unmarked) [ICI 204,448 hydrochloride]",remaining activity at 1.25 µM,[1]; Well no.=1065,101%
same,remaining activity at 3.75 µM,[2]; Well no.=1065,104%
"Ic1ccccc1CN[C@@H]1C2CCN(CC2)[C@@H]1C(c1ccccc1)c1ccccc1 [L-703,606 oxalate]",remaining activity at 1.25 µM,[1]; Well no.=964,96.7%
same,remaining activity at 3.75 µM,[2]; Well no.=964,96%
Nc1ncnc2c1ncn2[C@H]1C[C@H](O)[C@@H](CO)O1 [2'-Deoxyadenosine],remaining activity at 1.25 µM,[1]; Well no.=6691,106%
same,remaining activity at 1.25 µM,[1]; Well no.=7722,95.5%
same,remaining activity at 3.75 µM,[2]; Well no.=6691,105%
same,remaining activity at 3.75 µM,[2]; Well no.=7722,101%
Cc1[nH]nc2ccc(-c3cncc(OC[C@@H](N)Cc4ccccc4)c3)cc12 [A-674563],remaining activity at 1.25 µM,[1]; Well no.=2991,97%
same,remaining activity at 3.75 µM,[2]; Well no.=2991,99.1%
CC(C)NCC(O)c1ccc(O)c(O)c1 (centres unmarked) [Isoprenaline (hydrochloride)],remaining activity at 1.25 µM,[1]; Well no.=6761,99.4%
same,remaining activity at 3.75 µM,[2]; Well no.=6761,101%
Oc1ccc(C2CNCCc3c2cc(O)c(O)c3Cl)cc1 (centres unmarked) [Fenoldopam bromide],remaining activity at 1.25 µM,[1]; Well no.=757,98.2%
same,remaining activity at 3.75 µM,[2]; Well no.=757,96.8%
O=C(O)CCCCC(=O)O [Adipic acid],remaining activity at 1.25 µM,[1]; Well no.=6869,102%
same,remaining activity at 3.75 µM,[2]; Well no.=6869,98.1%
Clc1ccccc1CN1CCc2sccc2C1 [Ticlopidine],remaining activity at 1.25 µM,[1]; Well no.=1746,92.5%
same,remaining activity at 3.75 µM,[2]; Well no.=1746,92.5%
"COc1cc(/C=C/C(=O)NCCn2c(C)cc3ccccc32)cc(OC)c1OC [(E)-N-(2-(2-methyl-1H-indol-1-yl)ethyl)-3-(3,4,5-trimethoxyphenyl)acrylamide]",remaining activity at 1.25 µM,[1]; Well no.=5914,103%
same,remaining activity at 3.75 µM,[2]; Well no.=5914,99.4%
NS(=O)(=O)Cc1noc2ccccc12 [Zonisamide sodium],remaining activity at 1.25 µM,[1]; Well no.=1390,98.4%
same,remaining activity at 3.75 µM,[2]; Well no.=1390,100%
CC(C)=CCC/C(C)=C/COc1ccc2ccc(=O)oc2c1 [Auraptene],remaining activity at 1.25 µM,[1]; Well no.=3511,101%
same,remaining activity at 3.75 µM,[2]; Well no.=3511,104%
O=C(O)[C@@H](O)Cc1ccccc1 [(S)-2-Hydroxy-3-phenylpropanoic acid],remaining activity at 1.25 µM,[1]; Well no.=7173,96.3%
same,remaining activity at 3.75 µM,[2]; Well no.=7173,88.8%
Cn1cncc1C[C@H](NC(=O)CCN)C(=O)O [Anserine],remaining activity at 1.25 µM,[1]; Well no.=6581,102%
same,remaining activity at 1.25 µM,[1]; Well no.=7890,91.9%
same,remaining activity at 3.75 µM,[2]; Well no.=6581,103%
same,remaining activity at 3.75 µM,[2]; Well no.=7890,95.1%
